Data published in patent publication US20250003008A1, “METHODS FOR TREATMENT OF CANCER” (The Johns Hopkins University, priority 2021, published 2025).
Where two headings read alike, the source gives them in different places.

Key:
[1] = Experimental: PrE0505, a phase 2 single arm multicenter study, enrolled human patients with previously untreated unresectable MPM (NCT02899195, FIG. 1). […] Patients with stable or responding tumors after concurrent therapy, continued on maintenance durvalumab for a maximum duration of one year from the first study treatment. A protocol-defined safety review was performed after enrollment of the first 6 and 15 patients. Pre-specified dose-limiting toxicities during the safety run-in period included any immune-mediated adverse event of ≥grade 4 or any non-resolving immune-mediated adverse event of ≥grade 3 during the first two cycles of therapy.
Imaging was performed every 6 weeks during the concurrent phase of treatment and every 9 weeks during maintenance durvalumab. Best objective response was evaluated by RECIST Version 1.1 criteria modified for mesothelioma. Toxicity was determined using the CTCAE Version 4.03 criteria.
Secondary objectives included safety and tolerability of durvalumab and durvalumab in combination with chemotherapy in subjects with malignant pleural mesothelioma, percentage of patients progression-free at 24 weeks from the time of registration (response coded based on modified RECIST 1.1 criteria for mesothelioma), progression-free survival-measured from the time of study registration until radiologic progression, clinical progression or death, best objective response rate with evaluation continued up to 1 year (response coded based on modified RECIST Version 1.1 criteria for mesothelioma). Exploratory objectives included assessment of tumor baseline PD-L1 expression, the genomic and neoantigen landscape of tumors, dynamics of circulating cell free tumor DNA and other blood-based biomarkers.

[2] = system: malignant pleural mesothelioma; conditions: historical control, phase 3 study; cited from earlier work
[3] = of the patients who received that agent within the regimen

N.N.O=C([O-])C1(C(=O)[O-])CCC1.[Pt+2] [carboplatin]
patients who received a dose reduction due to toxicity [1, 3]: 12%

N.N.[Cl][Pt][Cl] [cisplatin]
survival [2]: 9.3 months

Nc1nc2[nH]cc(CCc3ccc(C(=O)N[C@@H](CCC(=O)O)C(=O)O)cc3)c2c(=O)[nH]1 [pemetrexed]
patients who received a dose reduction due to toxicity ([1]; human, in vivo): 2%

durvalumab
patients who received a dose reduction due to toxicity [1, 3]: no patients
